For 7 compounds, Tumor volume, IC50 and EC50 results are on record in patent US11583538B2, “Substituted pyrrolo[1,2-a]pyrazines and pyrrolo[1,2-a][1,4]diazepines as TREX1 inhibitors” (Venenum Biodesign, LLC, priority 2019, dated 2023).

One test has as its system MB49-Luc tumor. Nature of the test: MB49-Luc tumor bearing mice. The test is classed as in vivo, C57BL/6 mice. The note with it: 100 μg intra-tumoral Days 1, 3, 6, 9 plus 10 Gy radiation Day 0; by Day 20; vs vehicle alone, 10 Gy + vehicle, or Example 15B + vehicle. From the text:
The efficacy of the TREX1 inhibitors of the present invention can also be measured in a variety of in vivo assays. Exemplary mammals that can provide models to test the effectiveness of the TREX1 inhibitors of the present invention as anticancer agents include, but are not limited to, mice. Models of tumor growth and other tumor measurements can be used to assess the effectiveness of the anticancer agents described in the current invention. Example F describes an in vivo model of tumor growth in C57BL/6 mice. Compounds of the present invention can be tested in this model for their ability to inhibit growth of tumors. Compounds of the present invention can be used in combinatorial strategies to maximizing the immunogenicity of radiation therapy (Vanpouille-Box (2017) Nature Commun. 8, 81658). […] Ten week old female C57BL/6 mice were purchased from Jackson Laboratory (www.jax.org). During the study, the care and use of animals was conducted in accordance with the regulations of the Association for Assessment and Accreditation of Laboratory 15 Animal Care (AAALAC). […] Tumors were measured in two dimensions using calipers. Tumor volumes were calculated using the formula: volume (mm3)=(length×width2)/2. […]

The next test deals with human TREX1 (Homo sapiens (Human), UniProt Q9NSU2). Nature of the test: TREX1 Exonuclease Assay. The test is classed as biochemical. On the procedure:
For human TREX1, the nucleotide sequence of the gene construct was codon optimized for expression in the bacterial host. The sequence was incorporated into the pMAL-c5e vector (NEB) downstream of a solubility-promoting MBP (maltose binding protein) fusion partner. The fusion protein product was expressed in E. coli strain BL21 (DE3) (Millipore) and purified in a series of chromatographic steps. Initial steps were conducted using a dextrin sepharose affinity column followed by a Q-sepharose ion exchange column (both GE Healthcare). After the second column the MBP partner was removed by incubation with enterokinase (NEB). Further purification was carried out with the second application of a Q-sepharose column followed by a Superdex 75 (GE Healthcare) size exclusion column. Finally, a heparin sepharose column (GE Healthcare) was applied to remove contaminating nucleotides.
To evaluate the effect of compounds on TREX1 activity, test compounds were serially diluted (11-point, 3-fold) from 10 mM stock solutions and delivered to 384-well low-volume assay plates in 80 nL DMSO using an acoustic dispenser. Next, 4 μL of human TREX1 (0.5 nM), or murine TREX1 (1 nM), diluted in assay buffer (20 mM Tris pH 7.5, 5 mM MgCl2, 100 μg/mL BSA, 0.002% Triton X-100, 2 mM DTT), was added to the assay plate. After incubating for 30 minutes, 4 μL of labeled DNA oligonucleotide (500 nM) in assay buffer was added to initiate TREX1 exonuclease activity. The reaction was allowed to proceed for 45 minutes at room temperature prior to the addition of 4 μL of 150 mM EDTA to halt TREX1 activity.

The test system of test [1] is THP1 Dual cells, ISRE Lucia reporter gene, transfected with G3-YSD DNA. Nature of the test: Human Cellular EC50 Reporter Assay. To be noted: 72 h, serum-starved cells transfected with G3-YSD 10 ng/ml, three days. The test is classed as cell-based. From the text:
Example E is a cell-based assay for TREX1 inhibitors using THP1 Dual™ cells (Invivogen), a human monocyte cell line that has stable integration of an Interferon Stimulated Response Element (ISRE) Lucia reporter gene. The Lucia gene encodes a secreted luciferase reporter protein, under the control of an ISG54 minimal promoter in conjunction with five IFN-stimulated response elements. Activation of the cGAS-STING pathway in THP1 Dual™ cells leads to enhanced luciferase secretion and increased luminescence.
A cell-based assay was established using THP1 Dual™ cells (InvivoGen), a human monocyte cell line that has stable integration of an Interferon Stimulated Response Element (ISRE) Lucia reporter gene. The Lucia gene encodes a secreted luciferase reporter protein, under the control of an ISG54 minimal promoter in conjunction with five IFN-stimulated response elements. Activation of the cGAS-STING pathway in these cells leads to enhanced luciferase secretion. Three days prior to the assay, cells were transferred to a T75 flask at a density of 3.0×10^5 cells/ml in 20 ml of serum-starved media (RPMI 1640 containing 1% Heat-Inactivated FBS, 1× Glutagro, 10 mM HEPES, 1 mM sodium pyruvate, 1×Pen/Strep, 100 μg/ml Normocin, 100 μg/ml Zeocin, 10 μg/ml Blasticidin). On the day of assay cells were collected by centrifugation, washed in 1×DPBS, and resuspended in the 1% serum media at 3.3×10^5 cells/ml. An aliquot of an aqueous solution of the DNA oligonucleotide G3-YSD (InvivoGen) at 1 mg/ml was diluted 100-fold into the transfection reagent LyoVec (InvivoGen) and incubated at ambient temperature for 50 min to allow complex formation. Test compounds in DMSO were transferred to a standard 96-well tissue culture plate via acoustic dispense of 0.54 μl per well. Serum-starved cells were batch transfected with complex at a final DNA concentration of 10 ng/ml for 60 min at ambient temperature before dispensing 180 ul (60,000 cells) per well into the assay plate. The assay plate was then incubated in a humidified chamber at 37° C. in 5% CO2 for three days. An aliquot of 10 μl was removed from each well to combine with 10 μl of the luciferase detection reagent, QUANTI-Luc™ Gold (InvivoGen) in a white 384-well plate. The luminescent signal was then read using an EnVision plate reader (Perkin Elmer). An EC50 for each compound was determined by plotting the signal as a function of log molar concentration and fitting to a four parameter logistic equation. (see Table 32).

pEC50, pIC50: −log10 of the molar value.

Chain of human TREX1 (Q9NSU2 whole entry, the tested form may be a part): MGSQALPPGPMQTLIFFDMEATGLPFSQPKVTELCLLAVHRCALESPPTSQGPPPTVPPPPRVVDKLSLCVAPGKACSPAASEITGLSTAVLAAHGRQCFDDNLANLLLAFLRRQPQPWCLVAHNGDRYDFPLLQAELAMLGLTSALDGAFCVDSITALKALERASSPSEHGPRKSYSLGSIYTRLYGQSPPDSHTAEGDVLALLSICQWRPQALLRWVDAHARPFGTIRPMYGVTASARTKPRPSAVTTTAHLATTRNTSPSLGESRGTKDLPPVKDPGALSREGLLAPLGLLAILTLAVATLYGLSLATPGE

Consider `N[C@@H]1C[C@H]2C(=O)N([C@H](CCC(=O)O)C(=O)NCc3ccc(Cl)c(Cl)c3)CCC(CCc3ccccc3)N2C1` (stereo partly shown) [Example 15B], for which, in the test with MB49-Luc tumor, the Tumor volume result is “reduced tumor volumes”. In the case of `COc1c(CNC(=O)[C@@H](CCC(=O)O)N2CCC(CCc3ccccc3)N3C[C@H](N)C[C@H]3C2=O)ccc(Cl)c1Cl` (stereo partly shown) [Example 22], at human TREX1, the pIC50 is greater than 6.00. In test [1], the pEC50 was greater than 6.00. Turning to `N[C@@H]1C[C@H]2C(=O)N([C@H](CCC(=O)O)C(=O)NCc3ccc(Cl)c(Cl)c3F)CCC(CCc3ccccc3)N2C1` (stereo partly shown) [Example 30], the pIC50 against human TREX1 is greater than 6.00. Moreover, the pEC50 in test [1] was 5.00 to 6.00.

On human TREX1, `COc1c(CNC(=O)[C@@H](CCc2nnn[nH]2)N2CCC(CCc3ccccc3)N3C[C@H](N)C[C@H]3C2=O)ccc(Cl)c1Cl` (stereo partly shown) [Example 119] gave a pIC50 greater than 6.00. For the same compound, the pEC50 in test [1] was greater than 6.00. Turning to `N[C@@H]1C[C@H]2C(=O)N([C@H](CCc3nnn[nH]3)C(=O)NCc3ccc(Cl)c(Cl)c3F)CCC(CCc3ccccc3)N2C1` (stereo partly shown) [Example 120], the pIC50 on human TREX1 is greater than 6.00. Also, in test [1], the negative logarithm of the EC50 (pEC50) is 5.00 to 6.00. The like results for `CCOc1c(CNC(=O)[C@@H](CCC(=O)O)N2CCC(CCc3ccccc3)N3C[C@H](N)C[C@H]3C2=O)ccc(Cl)c1Cl` (stereo partly shown) [Example 137] were, in that order, greater than 6.00 and greater than 6.00.

The compound `CC(C)Oc1c(CNC(=O)[C@@H](CCC(=O)O)N2CCC(CCc3ccccc3)N3C[C@H](N)C[C@H]3C2=O)ccc(Cl)c1Cl` (stereo partly shown) [Example 138] had a pIC50 against human TREX1 greater than 6.00. Besides, the pEC50 in test [1] is greater than 6.00.
